These results are taken from ChEMBL document CHEMBL1201862, “PubChem BioAssay data set” (2004).

Holding throughout (assay): NCI-60 cell line screen, 48 h
For assay [1], the system named is 786-0.
For assay [2], the system named is A498.
Assay [3] relates to CAKI-1.
Assay [4] relates to EKVX.
The test system of assay [5] is HT-29.
Assay [6] deals with IGROV-1.
Assay [7] has as its system MOLT-4.
Assay [8] concerns NCI-H226.
In assay [9] the test system is NCI-H23.
Assay [10] concerns NCI-H522.
In assay [11] the test system is OVCAR-4.
The subject of assay [12] is OVCAR-8.
Assay [13] has as its system RPMI-8226.
Assay [14] deals with SK-MEL-28.
Assay [15] concerns SNB-75.
Assay [16] deals with TK-10.
Assay [17] deals with U-251.
In assay [18] the test system is HCT-116.

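Five concentrations, 48 hours, 96-well plates. Abbreviation: GI50, concentration required for 50% inhibition of growth.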 Calls of active or inactive are those of the source. Cut-off read from the data, not from the text of the source: active = GI50 up to about 1.1 µM and inactive = higher. Bounds are passed on as bounds.

Take `CC(=O)c1c(C)[n+]([O-])c2cc(C)c(C)cc2[n+]1[O-]`: the GI50 in assay [1] was > 100 µM (inactive); in [2] it was > 100 µM (inactive); in [3] it was > 100 µM (inactive); in [4] it was > 100 µM (inactive); in assay [5], 65.8 µM (inactive); in [6] it was > 100 µM (inactive). Moreover, the GI50 in [7], in assay [8], in assay [9], in [10], in assay [11] and in assay [12] was > 100 µM (inactive) in each case. Also, the GI50 in assay [13], in assay [14], in assay [15], in [16] and in assay [17] was > 100 µM (inactive) each time.

Consider `COc1ccc(OC)c(CCc2cc(OC)c(OC)cc2C)c1`, for which the GI50 in assay [1] is 38.7 µM (inactive); in assay [2], > 100 µM (inactive); in assay [3], 52 µM (inactive); in assay [4], 84.9 µM (inactive); in [5], 28.4 µM (inactive); in [6], 8.47 µM (inactive). Further, the GI50 in assay [7] is 12.1 µM (inactive); in assay [9] it was 32.1 µM (inactive); in assay [10], 3.65 µM (inactive); in assay [11] it was 8.2 µM (inactive); in assay [12], 48.5 µM (inactive); in assay [13], 14.4 µM (inactive). The GI50 in assay [14] was 9.38 µM (inactive); in assay [15] it was 16.8 µM (inactive); in assay [16] it was 89.7 µM (inactive); in assay [17] it was 43.4 µM (inactive).

For the molecule `Nc1nc2c(ncn2CCOC(c2ccccc2)P(=O)(O)O)c(=O)[nH]1` (stereo unspecified), the GI50 in assay [1], in assay [2], in assay [3], in assay [4], in assay [18] and in [5] was > 100 µM (inactive) each time. The GI50 in assay [6], in [8], in assay [9], in [10], in assay [12] and in [14] was > 100 µM (inactive) throughout. Moreover, the GI50 in assay [15] was > 100 µM (inactive); in [16] it was > 100 µM (inactive); in assay [17], 1.09 µM (active).

In the case of `COC(=O)C(=O)C(/C(=N/N)C(=O)Nc1ccccc1C(N)=O)c1nc2ccc([N+](=O)[O-])cc2nc1O` (stereo unspecified), the GI50 was > 100 µM (inactive) in assay [1]; 1.01 µM (active) in assay [2]; > 100 µM (inactive) in assay [3]; 18.4 µM (inactive) in assay [4]; > 100 µM (inactive) in assay [18]; > 100 µM (inactive) in assay [5]. For the same molecule, the GI50 in [6] was > 100 µM (inactive); in [7], > 100 µM (inactive); in [8], 29.3 µM (inactive); in [9] it was > 100 µM (inactive); in assay [10], > 100 µM (inactive); in assay [11], > 100 µM (inactive). Besides, the GI50 in assay [12], in assay [13], in assay [14], in assay [16] and in assay [17] was > 100 µM (inactive) throughout.

Turning to `O=C1OCc2nc3c(c(-c4ccccc4C(F)(F)F)c21)C(=O)OC3`, the GI50 in [1], in assay [2], in assay [4], in [18], in assay [6] and in assay [7] was > 100 µM (inactive) throughout. Moreover, the GI50 in assay [9], in assay [10], in assay [12], in assay [13], in [14] and in [16] was > 100 µM (inactive) in each case. Further, the GI50 in [17] is > 100 µM (inactive).

For the molecule `S=c1[nH]c(=S)c2nnn(-c3ccccc3)c2[nH]1`, the GI50 in [1] was > 100 µM (inactive); in assay [3], > 100 µM (inactive); in assay [4] it was > 100 µM (inactive); in assay [18], 0.0836 µM (active); in assay [5], > 100 µM (inactive); in assay [6], > 100 µM (inactive). Moreover, the GI50 in [7], in assay [8], in assay [9], in assay [10], in assay [12] and in assay [13] was > 100 µM (inactive) in each case. Moreover, the GI50 in [14], in [15], in assay [16] and in [17] was > 100 µM (inactive) throughout.

Take `NC(=O)NNC(=O)CCn1[nH]c(=O)c(Cl)c(Cl)c1=O`: the GI50 in [1], in assay [2], in assay [3], in assay [4], in assay [18] and in assay [5] was > 100 µM (inactive) in each case. Also, the GI50 in assay [6], in assay [8], in [9], in assay [10], in assay [11] and in assay [12] was > 100 µM (inactive) each time. Moreover, the GI50 in assay [14], in assay [15], in assay [16] and in assay [17] was > 100 µM (inactive) each time.

`CCc1cccc(C)c1NC(=O)C1=C(C)NC(C)=C(C(=O)Nc2c(C)cccc2CC)C1c1ccc2c(c1)OCO2`: the GI50 in assay [1] was 16.7 µM (inactive); in assay [2], 11.3 µM (inactive); in [3], 18.8 µM (inactive); in assay [4] it was 20.5 µM (inactive); in assay [5], 20.8 µM (inactive); in [6], 24.7 µM (inactive). Also, the GI50 in [7] is 21.2 µM (inactive); in [8], 19.8 µM (inactive); in [9], 16.5 µM (inactive); in assay [10], 15.9 µM (inactive); in assay [11] it was 20.1 µM (inactive); in assay [12] it was 29.6 µM (inactive). Besides, the GI50 is 16.8 µM (inactive) in [13]; 15.6 µM (inactive) in assay [14]; 9.84 µM (inactive) in assay [15]; 26.6 µM (inactive) in assay [16]; 15.2 µM (inactive) in assay [17].

`C/C(=C\C(C)COCc1ccccc1)[C@H](COCc1ccccc1)OCc1ccccc1` (stereo partly specified): the GI50 in assay [1] was > 100 µM (inactive); in assay [2], > 100 µM (inactive); in assay [4], > 100 µM (inactive); in assay [18] it was 85.1 µM (inactive); in assay [5], > 100 µM (inactive); in assay [6], > 100 µM (inactive). Moreover, the GI50 in assay [7] was 46.9 µM (inactive); in [8], > 100 µM (inactive); in assay [9] it was 48 µM (inactive); in assay [10] it was 88.5 µM (inactive); in assay [11] it was 63.2 µM (inactive); in assay [12], > 100 µM (inactive). The GI50 was 50.1 µM (inactive) in assay [13]; > 100 µM (inactive) in [14]; 80.2 µM (inactive) in [15]; > 100 µM (inactive) in [16]; > 100 µM (inactive) in [17].

Regarding `CCC1C(=O)OCc2c1cc1n(c2=O)Cc2ccccc2-1` (stereo unspecified), the GI50 was > 100 µM (inactive) in assay [1]; > 100 µM (inactive) in assay [2]; 34.2 µM (inactive) in assay [3]; > 100 µM (inactive) in assay [4]; > 100 µM (inactive) in assay [18]; > 100 µM (inactive) in assay [5]. Moreover, the GI50 in assay [6], in assay [7], in assay [8], in [9], in [11] and in assay [12] was > 100 µM (inactive) each time. The GI50 in assay [13], in assay [14], in assay [15] and in assay [16] was > 100 µM (inactive) throughout.

In the case of `CCCCCCCCCCCC[N+]12CC[N+](C)(CC1)CC2`, the GI50 in [1] is 13 µM (inactive); in assay [3] it was 11.8 µM (inactive); in assay [4] it was > 100 µM (inactive); in [18], 38.7 µM (inactive); in assay [5], 16.4 µM (inactive); in assay [6], 1.98 µM (inactive). The GI50 in assay [7] is 27.9 µM (inactive); in [8], 18.3 µM (inactive); in assay [9] it was 20.9 µM (inactive); in [10], 19.4 µM (inactive); in [11] it was 44.8 µM (inactive); in [12], > 100 µM (inactive). Besides, the GI50 in assay [13] is 15.8 µM (inactive); in assay [14], > 100 µM (inactive); in assay [15], 13 µM (inactive); in [16], 1.89 µM (inactive); in assay [17], 15.6 µM (inactive).

For `CC1=C(/C=C/C(C)=C/C=C/C(C)=C/CO)C(C)(C)CCC1` [RETINOL], the GI50 was 17.2 µM (inactive) in assay [1]; 18.3 µM (inactive) in [2]; 42 µM (inactive) in assay [3]; 27.1 µM (inactive) in assay [4]; 27.2 µM (inactive) in assay [5]; 29.2 µM (inactive) in [6]. In addition, the GI50 in assay [7] was 18 µM (inactive); in assay [8], 20.7 µM (inactive); in assay [9], 21.8 µM (inactive); in assay [10], 25.5 µM (inactive); in assay [11] it was 37.7 µM (inactive); in assay [14] it was 25.5 µM (inactive). For the same molecule, the GI50 in [15] was 0.0279 µM (active); in assay [17], 21.2 µM (inactive).
